Test results as given in patent US20140161720A1, “TREATMENT OF ANGIOGENIC- OR VASCULAR-ASSOCIATED DISEASES” (THE GENERAL HOSPITAL CORPORATION, priority 2011, published 2014).
Entries after “also recorded” stand apart in the source; their conditions may differ.

Columns and labels:
[1] = test system: orthotopic 4T1 mammary tumors; experiment: Vascular parameters in tumors by intravital multiphoton microscopy; format: in vivo, female SCID mice; conditions: 37.5 mg/kg daily i.p.
Experimental: Female SCID mice bearing orthotopic GFP-labeled 3 mm 4T1 mammary tumors were treated with five daily i.p. injections (day 0-day 4) of 37.5 mg/kg DAL or saline. Implanted mammary fat pad windows (35) were surgically implanted to facilitate intravital imaging through multiphoton microscopy with a custom-built multiphoton microscope with a 20×0.95NA objective (Olympus), and mice were imaged by fluorescent angiography following retro-orbital injection of 60 uL of 10 mg/mL TAMRA-dextran (2MDa molecular mass). Images were collected on day 0, day 2, and day 4, with the first images collected immediately before the first treatment. The 2×2 grids were imaged in the sample plane (630-μm) field of view at each position) tissue from 0-200 μm depth. To measure vascular parameters in the mice over the course of treatment, a custom 3D vascular tracing and analysis software package based on MATLAB (The Mathworks) was applied to the images.
To study these effects quantitatively, fluorescent angiographies were conducted in female SCID mice bearing orthotopic 4T1 mammary tumors in mammary fat pad windows via intravital multiphoton microscopy (FIG. 3A) (22-24). These mice were treated with 37.5 mg/kg DAL or saline daily for 5 days by i.p. injection. It was determined that DAL treatment decreases tumor vascular volume fractions—a measure of vascular density—compared with saline treatment (FIG. 3B, p<0.002, day 4).

[2] = Pharmacokinetics after intraperitoneal administration; format: in vivo; conditions: after i.p. dosing, 100% DMSO formulation, male CD-1 mice
Text: FIG. 8 is a graph showing pharmacokinetic parameters after intraperitoneal administration of DAL.

Rac1 mRNA = Rac1 mRNA expression by quantitative PCR; format: cell-based
MDA-MB-231 cells = experiment: High-throughput cell adhesion screen (cells remaining attached); format: cell-based, human; conditions: FIG. 1C
Experimental: A cell-based readout system was used for compound selection. For the cell-based screening, an optimal cell density of 10,000 breast cancer MDA-MB-231 cells/well was selected to produce the most prominent signal. The plated cells were incubated with each library compound, washed with PBS, and the Cell Titer-Glo (Promega) reagent was used to detect the number of cells remaining attached in each well. This ATP-based detection has a linear relationship between the luminescent signal and the number of cells per well. Of the 50,000 compounds screened, 86 library compounds (0.172% of screened compounds) were selected at 1.67 μM concentration for the second screening step. […] As a further test of toxicity, DAL was injected intraperitoneally at 100 mg/kg in SCID mice and signs of toxicity including cachexia, ruffled fur, diarrhea, anorexia, skin ulceration, and toxic death were monitored.
A screening strategy was developed to identify potential agents that target adhesion of endothelial cells or cancer cells to their substrate. […] The initial screening step quantified the number of cells remaining attached to their wells following incubation with each compound and subsequent washing steps. […] The agents that affect cell adhesion can be monitored through remodeling of actin filaments. […] Changes in actin assembly and cell shape after treatment with 12 compounds were determined. […]

[3] = set-up: species or system female SCID mice; conditions: mouse, in vivo, ip, 37.5 mg/kg
Experimental: To assess the anti-tumor effects of DAL, female SCID mice bearing orthotopic 4T1 or E0771 mammary tumors were treated with daily i.p. injections of 37.5 mg/kg DAL or saline. In order to calculate tumor volumes, the major and minor axis diameters were measured with calipers and the tumor volume was calculated by assuming a spherical shape based on the average of these two dimensions. The tumors were implanted in the mammary fat pad and allowed to grow to a starting size (small ˜100 mm^3 tumors for E0771, large ˜200 mm^3 tumors for 4T1) over ˜2 weeks. To ensure that tumors in the two groups were of similar growth rates, the treatment with saline or DAL was begun in pairs of tumors with similar sizes and growth times. Tumor volumes were measured every other day until the tumors reached an average of ˜10 mm in diameter. Tumor growth was quantified with the doubling rate, and calculated by fitting an exponential growth curve to the data for tumor size versus time.
As shown in Example 3, DAL has an antivascular effect in orthotopic mammary tumors in mice. Thus, the antitumor effect of DAL was next assessed. […] The effect of DAL on the growth of orthotopic 4T1 and E0771 mammary tumors with daily treatment of DAL or saline was evaluated (FIG. 4A). 37.5 mg/kg of DAL was used for these experiments based on the pharmacokinetics results as well as in vitro and in vivo data. […]

Structure (SMILES): CC1(C)C=CC2=C(O1)C(=O)c1ccccc1C2=O [DAL, dehydro-alpha-lapachone]
- total tumor vascular length (normalized to tumor volume) ([1]; day 2 and day 4, versus saline): lower
- tumor vascular volume fraction ([1]; day 4, versus saline): decreases; also recorded: lower
- mean tumor vascular diameter ([1]; versus saline): remains the same; also recorded: no significant difference
- half-life in plasma [2]: 1.7 h
- expression levels of Rac1 mRNA (Rac1 mRNA): did not change
- cell adhesion properties (MDA-MB-231 cells): lost their adhesion properties
- weight loss or other signs of toxicity [3]: no weight loss or other noted signs of toxicity
